{"source": "patent US4596819A", "about": "“Modified tripeptides” (Warner-Lambert Company, priority 1984, dated 1986)", "key": {"[1]": {"test_system": "amnesia produced by electroconvulsive shock", "experiment": "reversal of electroconvulsive shock-induced amnesia, rats", "assay_type": "in vivo"}, "learning and memory": {"test_system": "learning and memory", "conditions": "intranasal administration, young unimpaired human subjects, compared with placebo treatment; cited from earlier work"}, "pole-climbing avoidance": {"test_system": "pole-climbing avoidance", "conditions": "cited from earlier work"}, "[2]": {"test_system": "amnesia produced by electroconvulsive shock", "experiment": "reversal of electroconvulsive shock-induced amnesia, mice", "assay_type": "in vivo", "procedure": "The modified peptides in accordance with this invention are effective in treating senility, in enhancing memory, or of reversing the effects of electroconvulsive shock-induced amnesia. The effectiveness of these compounds is determined by the test designed to show the compound's ability to reverse amnesia produced by electroconvulsive shock. The test is more fully described in U.S. Pat. No. 4,145,347, issued Mar. 20, 1979, the disclosure of which is herein incorporated by reference. The only deviation in the present instance is that the compounds tested are administered orally, and the duration of the electroconvulsive shock administered is 1.0 seconds."}, "[3]": {"test_system": "recall of learned information", "conditions": "two patients given bilateral electroconvulsive shock therapy (ECT); cited from earlier work"}, "[4]": {"test_system": "amnesia produced by electroconvulsive shock", "experiment": "reversal of electroconvulsive shock-induced amnesia, mice", "assay_type": "in vivo", "remark": "listed apart in the source"}}, "data": [{"compound": "Cc1ccc(S(=O)(=O)N2CCCC2CN[C@@H](CC(C)C)C(=O)NCC(N)=O)cc1", "note": "(stereo partly drawn) [TosPro[CH2 NH]DLeuGlyNH2, (S)-N^2-[[1-[(4-Methylphenyl)sulfonyl]-2-pyrrolidinyl]methyl]-D-Leucylglycinamide]", "values": [{"measurement": "% Amnesia Reversal Rats", "setting": "[1]; dose 0.001 mg/kg IM", "result": 0, "unit": "%"}, {"measurement": "Amnesia reversal rating, rats", "setting": "[1]; dose 0.001 mg/kg IM", "result": "N (0 to 25 percent amnesia reversal (inactive=N))"}, {"measurement": "% Amnesia Reversal Rats", "setting": "[1]; dose 0.010 mg/kg IM", "result": 0, "unit": "%"}, {"measurement": "Amnesia reversal rating, rats", "setting": "[1]; dose 0.010 mg/kg IM", "result": "N (0 to 25 percent amnesia reversal (inactive=N))"}, {"measurement": "% Amnesia Reversal Rats", "setting": "[1]; dose 0.100 mg/kg IM", "result": 34, "unit": "%"}, {"measurement": "Amnesia reversal rating, rats", "setting": "[1]; dose 0.100 mg/kg IM", "result": "C (25 to 39 percent amnesia reversal (borderline activity=C))"}]}, {"compound": "CC(C)CC(CSCC(=O)O)NC(=O)C1CC(=O)CN1C(=O)OCc1ccccc1", "note": "(stereo not drawn) [Z4-Keto ProLeu[CH2 S]Gly, [S-(R*,R*)]-Phenylmethyl 2-[[[1-[[(carboxymethyl)thio]methyl]-3-methylbutyl]amino]carbonyl]-4-oxo-1-pyrrolidinecarboxylate]", "values": [{"measurement": "% Amnesia Reversal Rats", "setting": "[1]; dose 0.001 mg/kg IM", "result": 17, "unit": "%"}, {"measurement": "Amnesia reversal rating, rats", "setting": "[1]; dose 0.001 mg/kg IM", "result": "N (0 to 25 percent amnesia reversal (inactive=N))"}, {"measurement": "% Amnesia Reversal Rats", "setting": "[1]; dose 0.010 mg/kg IM", "result": 50, "unit": "%"}, {"measurement": "Amnesia reversal rating, rats", "setting": "[1]; dose 0.010 mg/kg IM", "result": "A (40 percent or more amnesia reversal (active=A))"}, {"measurement": "% Amnesia Reversal Rats", "setting": "[1]; dose 0.100 mg/kg IM", "result": 83, "unit": "%"}, {"measurement": "Amnesia reversal rating, rats", "setting": "[1]; dose 0.100 mg/kg IM", "result": "A (40 percent or more amnesia reversal (active=A))"}]}, {"compound": "CC(C)C[C@@H](CNCC(N)=O)NC(=O)[C@@H]1CCCN1C(=O)OCc1ccccc1.Cl", "note": "(relative stereo) [ZProLeu[CH2 NH]GlyNH2, [S-(R*,R*)]-2-[[[1-[[(2-Amino-2-oxoethyl)-amino]methyl]-3-methylbutyl]amino]-carbonyl]-1-pyrrolidinecarboxylic acid, phenylmethyl ester, monohydrochloride]", "values": [{"measurement": "% Amnesia Reversal Rats", "setting": "[1]; dose 0.001 mg/kg IM", "result": 43, "unit": "%"}, {"measurement": "Amnesia reversal rating, rats", "setting": "[1]; dose 0.001 mg/kg IM", "result": "A (40 percent or more amnesia reversal (active=A))"}, {"measurement": "% Amnesia Reversal Rats", "setting": "[1]; dose 0.010 mg/kg IM", "result": 43, "unit": "%"}, {"measurement": "Amnesia reversal rating, rats", "setting": "[1]; dose 0.010 mg/kg IM", "result": "A (40 percent or more amnesia reversal (active=A))"}, {"measurement": "% Amnesia Reversal Rats", "setting": "[1]; dose 0.100 mg/kg IM", "result": 43, "unit": "%"}, {"measurement": "Amnesia reversal rating, rats", "setting": "[1]; dose 0.100 mg/kg IM", "result": "A (40 percent or more amnesia reversal (active=A))"}]}, {"compound": "CC(C)C[C@@H](CSCC(=O)O)NC(=O)[C@@H]1CCC(=O)N1C(=O)OCc1ccccc1", "note": "(relative stereo) [Z3-KetoProLeu[CH2 S]Gly, [S-(R*,R*)]-Phenylmethyl 5-oxo-2-[[[1-[[(carboxymethyl)thio]methyl]-3-methylbutyl]amino]carbonyl]-1-pyrrolidinecarboxylate]", "values": [{"measurement": "% Amnesia Reversal Rats", "setting": "[1]; dose 0.001 mg/kg IM", "result": 33, "unit": "%"}, {"measurement": "Amnesia reversal rating, rats", "setting": "[1]; dose 0.001 mg/kg IM", "result": "C (25 to 39 percent amnesia reversal (borderline activity=C))"}, {"measurement": "% Amnesia Reversal Rats", "setting": "[1]; dose 0.010 mg/kg IM", "result": 0, "unit": "%"}, {"measurement": "Amnesia reversal rating, rats", "setting": "[1]; dose 0.010 mg/kg IM", "result": "N (0 to 25 percent amnesia reversal (inactive=N))"}, {"measurement": "% Amnesia Reversal Rats", "setting": "[1]; dose 0.100 mg/kg IM", "result": 0, "unit": "%"}, {"measurement": "Amnesia reversal rating, rats", "setting": "[1]; dose 0.100 mg/kg IM", "result": "N (0 to 25 percent amnesia reversal (inactive=N))"}]}, {"compound": "NC(=O)CC[C@@H]1NC(=O)[C@H](Cc2ccccc2)NC(=O)[C@H](Cc2ccc(O)cc2)NC(=O)[C@@H](N)CSSC[C@@H](C(=O)N2CCC[C@H]2C(=O)N[C@@H](CCCN=C(N)N)C(=O)NCC(N)=O)NC(=O)[C@H](CC(N)=O)NC1=O", "note": "[vasopressin]", "values": [{"measurement": "effect on learning and memory", "setting": "learning and memory", "result": "increases in learning and memory"}]}, {"compound": "Pro-Arg-Gly-NH2", "values": [{"measurement": "activity in the rat pole-climbing avoidance test", "setting": "pole-climbing avoidance", "result": "active"}]}, {"compound": "NC(=O)COCC(Cc1ccccc1)NC(=O)[C@@H]1CCCN1C(=O)OCc1ccccc1", "note": "(stereo partly drawn) [ZProPhe[CH2 O]GlyNH2, (2S)-Phenylmethyl 2[[[1-[(2-amino-2-oxoethoxy)methyl]-2-phenylethyl]amino]carbonyl]-1-pyrrolidinecarboxylate]", "values": [{"measurement": "% Amnesia Reversal Mice", "setting": "[2]; dose 1 mg/kg PO", "result": 20, "unit": "%"}, {"measurement": "Amnesia reversal rating, mice", "setting": "[2]; dose 1 mg/kg PO", "result": "N (0 to 25 percent amnesia reversal (inactive=N))"}, {"measurement": "% Amnesia Reversal Mice", "setting": "[2]; dose 10 mg/kg PO", "result": 59, "unit": "%"}, {"measurement": "Amnesia reversal rating, mice", "setting": "[2]; dose 10 mg/kg PO", "result": "A (40 percent or more amnesia reversal (active=A))"}, {"measurement": "% Amnesia Reversal Mice", "setting": "[2]; dose 100 mg/kg PO", "result": 71, "unit": "%"}, {"measurement": "Amnesia reversal rating, mice", "setting": "[2]; dose 100 mg/kg PO", "result": "A (40 percent or more amnesia reversal (active=A))"}, {"measurement": "% Amnesia Reversal Rats", "setting": "[1]; dose 0.001 mg/kg IM", "result": 11, "unit": "%"}, {"measurement": "Amnesia reversal rating, rats", "setting": "[1]; dose 0.001 mg/kg IM", "result": "N (0 to 25 percent amnesia reversal (inactive=N))"}, {"measurement": "% Amnesia Reversal Rats", "setting": "[1]; dose 0.010 mg/kg IM", "result": 0, "unit": "%"}, {"measurement": "Amnesia reversal rating, rats", "setting": "[1]; dose 0.010 mg/kg IM", "result": "N (0 to 25 percent amnesia reversal (inactive=N))"}, {"measurement": "% Amnesia Reversal Rats", "setting": "[1]; dose 0.100 mg/kg IM", "result": 0, "unit": "%"}, {"measurement": "Amnesia reversal rating, rats", "setting": "[1]; dose 0.100 mg/kg IM", "result": "N (0 to 25 percent amnesia reversal (inactive=N))"}]}, {"compound": "CC(C)C[C@H](NC[C@@H]1CCCN1C(=O)OCc1ccccc1)C(=O)NCC(N)=O", "note": "(relative stereo) [ZPro[CH2 NH]LeuGlyNH2, [S-(R*,R*)]-2-[[[[1-[(2-Amino-2-oxoethyl)amino]carbonyl]-3-methylbutyl]amino]methyl]-1-pyrrolidinecarboxylic acid, phenylmethyl ester]", "values": [{"measurement": "% Amnesia Reversal Mice", "setting": "[2]; dose 1 mg/kg PO", "result": 85, "unit": "%"}, {"measurement": "Amnesia reversal rating, mice", "setting": "[2]; dose 1 mg/kg PO", "result": "A (40 percent or more amnesia reversal (active=A))"}, {"measurement": "% Amnesia Reversal Mice", "setting": "[2]; dose 10 mg/kg PO", "result": 67, "unit": "%"}, {"measurement": "Amnesia reversal rating, mice", "setting": "[2]; dose 10 mg/kg PO", "result": "A (40 percent or more amnesia reversal (active=A))"}, {"measurement": "% Amnesia Reversal Mice", "setting": "[2]; dose 100 mg/kg PO", "result": 57, "unit": "%"}, {"measurement": "Amnesia reversal rating, mice", "setting": "[2]; dose 100 mg/kg PO", "result": "A (40 percent or more amnesia reversal (active=A))"}, {"measurement": "% Amnesia Reversal Rats", "setting": "[1]; dose 0.001 mg/kg IM", "result": 11, "unit": "%"}, {"measurement": "Amnesia reversal rating, rats", "setting": "[1]; dose 0.001 mg/kg IM", "result": "N (0 to 25 percent amnesia reversal (inactive=N))"}, {"measurement": "% Amnesia Reversal Rats", "setting": "[1]; dose 0.010 mg/kg IM", "result": 0, "unit": "%"}, {"measurement": "Amnesia reversal rating, rats", "setting": "[1]; dose 0.010 mg/kg IM", "result": "N (0 to 25 percent amnesia reversal (inactive=N))"}, {"measurement": "% Amnesia Reversal Rats", "setting": "[1]; dose 0.100 mg/kg IM", "result": 0, "unit": "%"}, {"measurement": "Amnesia reversal rating, rats", "setting": "[1]; dose 0.100 mg/kg IM", "result": "N (0 to 25 percent amnesia reversal (inactive=N))"}]}, {"compound": "1-desamino-8-D-arginine vasopressin [DDAVP]", "values": [{"measurement": "effect on learning and memory", "setting": "learning and memory", "result": "increases in learning and memory"}, {"measurement": "effect on recall of learned information", "setting": "[3]", "result": "Positive effects on recall of learned information"}]}, {"compound": "CC(C)CC(CSCC(=O)O)NC(=O)C1CCCN1C(=O)OCc1ccccc1", "note": "(stereo not drawn) [ZProLeu[CH2 S]Gly, [2S-(R*,R*)]-Phenylmethyl2-[[[1-[[(carboxymethyl)thio]methyl]-3-methylbutyl]amino]carbonyl]-1-pyrrolidinecarboxylate]", "values": [{"measurement": "% Amnesia Reversal Rats", "setting": "[1]; dose 0.001 mg/kg IM", "result": 57, "unit": "%"}, {"measurement": "Amnesia reversal rating, rats", "setting": "[1]; dose 0.001 mg/kg IM", "result": "N (0 to 25 percent amnesia reversal (inactive=N))"}, {"measurement": "% Amnesia Reversal Rats", "setting": "[1]; dose 0.010 mg/kg IM", "result": 57, "unit": "%"}, {"measurement": "Amnesia reversal rating, rats", "setting": "[1]; dose 0.010 mg/kg IM", "result": "A (40 percent or more amnesia reversal (active=A))"}, {"measurement": "% Amnesia Reversal Rats", "setting": "[1]; dose 0.100 mg/kg IM", "result": 14, "unit": "%"}, {"measurement": "Amnesia reversal rating, rats", "setting": "[1]; dose 0.100 mg/kg IM", "result": "N (0 to 25 percent amnesia reversal (inactive=N))"}, {"measurement": "% Amnesia Reversal Mice", "setting": "[4]; dose 0.1 mg/kg IM", "result": 69, "unit": "%"}, {"measurement": "Amnesia reversal rating, mice", "setting": "[4]; dose 0.1 mg/kg IM", "result": "A (40 percent or more amnesia reversal (active=A))"}, {"measurement": "% Amnesia Reversal Mice", "setting": "[4]; dose 1.0 mg/kg IM", "result": 77, "unit": "%"}, {"measurement": "Amnesia reversal rating, mice", "setting": "[4]; dose 1.0 mg/kg IM", "result": "A (40 percent or more amnesia reversal (active=A))"}, {"measurement": "% Amnesia Reversal Mice", "setting": "[4]; dose 10.0 mg/kg IM", "result": 69, "unit": "%"}, {"measurement": "Amnesia reversal rating, mice", "setting": "[4]; dose 10.0 mg/kg IM", "result": "A (40 percent or more amnesia reversal (active=A))"}]}]}
